Assay results published in US20240425583A1, “METHODS AND COMPOSITIONS RELATED TO MCL-1 AND BIM HETERODIMER ANTIBODIES” (priority 2021, published 2024).
One block for each compound: values may come before it.

Columns and labels:
[1] = molecular target: BCLXL: BIM (Homo sapiens, UniProt Q07817); assay: PRIMAB intra-cellular immunofluorescent staining and flow cytometry in U266B1 cells (FIG. 19); details: BCLXL primed U266B1 cells, HSBXB PRIMAB
Experimental: Priming complexes in leukemia cells were measured by intra-cellular immunofluorescent staining with PRIMABs and detected by flow cytometry.

[2] = tested on: Mcl-1:Bim complex; assay: Heterodimer to monomer ratio by flow cytometry in SET2 cells (FIG. 18); format: cell-based; details: A1155463 treated SET2 cells, detected with F05
Experimental: (§1) FIG. 18 is a graph showing a ratio of measured heterodimer to monomer in Bcl-xL dependent cell lines: Bcl-2:Bim, Mcl-1:Bim, and Bcl-xL:Bim. Bcl-xL:Bim shifts against Bcl-xL and Mcl-1 upon treatment. In this experiment, a shift away from the complex is detected when the sample is treated with BCLXL targeted BH3 mimetic (A1155463).

[3] = tested on: Mcl-1:Bim complex; assay: Heterodimer to monomer ratio by flow cytometry in UKE-1 cells (FIG. 18); format: cell-based; details: A1155463 treated UKE-1 cells, detected with F05
Experimental: as §1

[4] = molecular target: T1, BCL2:BIM complex (Homo sapiens, UniProt P10415); assay: PRIMAB intra-cellular immunofluorescent staining and flow cytometry in U2932 cells (FIG. 19); format: cell-based; parameters: endogenous in cells; host or cells: U2932; details: BCL2 primed U2932 cells
T1 sequence (P10415 whole entry, one chain of several): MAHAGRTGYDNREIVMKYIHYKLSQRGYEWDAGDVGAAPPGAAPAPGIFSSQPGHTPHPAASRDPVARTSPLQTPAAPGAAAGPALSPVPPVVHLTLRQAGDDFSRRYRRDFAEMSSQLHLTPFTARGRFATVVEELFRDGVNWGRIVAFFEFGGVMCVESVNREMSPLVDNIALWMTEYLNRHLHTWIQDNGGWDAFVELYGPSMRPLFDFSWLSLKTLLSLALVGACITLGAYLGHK
Excerpt: These shifts match BH3 mimetic selectivity.

[5] = molecular target: T1, BCL2:BIM complex; assay: Flow cytometry of BH3 mimetic treated cells, heterodimer-specific vs monomer antibodies (FIG. 17); format: cell-based; parameters: endogenous in cells; details: detected with 2H3 (BCL2:BIM) and F05 (MCL-1:BIM)
Experimental: This shift is detected by MCL-1:BIM specific antibody (F05) relative to total MCL-1 in the cell. In this experiment, cells are treated with specific BCL2 targeted BH3 mimetic (AZD4320, Medchemexpress), fixed, permeabilized, and stained with heterodimer-specific antibodies and standard antibodies against monomers. Signals are measured on FLOW Cytometer, show relative signal and the data shown in FIG. 17 is a ratio of complex/monomer signal. FIG. 17 is a graph showing a BCL2:BIM complex specific antibody that tracts with complex disruption by a BH3 mimetic.

Chain of BCLXL: BIM (Q07817 whole entry): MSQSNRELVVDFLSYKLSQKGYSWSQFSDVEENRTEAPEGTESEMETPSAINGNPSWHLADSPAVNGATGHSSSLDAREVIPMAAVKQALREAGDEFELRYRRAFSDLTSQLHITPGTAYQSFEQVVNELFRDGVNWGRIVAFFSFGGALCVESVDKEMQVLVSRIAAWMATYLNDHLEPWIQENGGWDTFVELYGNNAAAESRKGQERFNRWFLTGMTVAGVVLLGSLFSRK

priming complex shift by PRIMAB readout [1]: BCLXL: BIM shift
Compound: CN(C)CC#Cc1ccc(OCCCc2sc(N3CCc4cccc(C(=O)Nc5nc6ccccc6s5)c4C3)nc2C(=O)O)c(F)c1 [A1155463]
ratio of measured heterodimer to monomer [2]: shift and “priming” to MCL1:BIM complex
ratio of measured heterodimer to monomer [3]: shift and “priming” to MCL1:BIM complex

priming complex shift by PRIMAB readout [4]: disruption of BCL2: BIM complex
Compound: CC1(C)CCC(CN2CCN(c3ccc(C(=O)NS(=O)(=O)c4ccc(NCC5CCOCC5)c([N+](=O)[O-])c4)c(Oc4cnc5[nH]ccc5c4)c3)CC2)=C(c2ccc(Cl)cc2)C1 [ABT-199]

Compound: CN(CCO)CC[C@H](CSc1ccccc1)Nc1ccc(S(=O)(=O)NC(=O)c2ccc(N3CCC([C@@H](O)c4ccccc4-c4ccc(Cl)cc4)CC3)cc2)cc1S(=O)(=O)C(F)(F)F [AZD4320]
ratio of complex/monomer signal [5]: shift from the BCL2:BIM complex to the MCL-1:BIM complex
